How the values were obtained:
[1] = system: Puccinia recondita f. sp. tritici; assay: Puccinia recondita f. sp. tritici / wheat / leaf disc preventative (brown rust); format: in vivo; details: foliar, wheat leaf segments cv. Kanzler, inoculated 1 day after application, assessed 7-9 days after application, read-out: control of Puccinia recondita f. sp. tritici compared to untreated control
Description: Leaf disks or leaf segments of various plant species are cut from plants grown in a greenhouse. The cut leaf disks or segments are placed in multiwell plates (24-well format) onto water agar. The leaf disks are sprayed with a test solution before (preventative) or after (curative) inoculation. Compounds to be tested are prepared as DMSO solutions (max. 10 mg/ml) which are diluted to the appropriate concentration with 0.025% Tween20 just before spraying. The inoculated leaf disks or segments are incubated under defined conditions (temperature, relative humidity, light, etc.) according to the respective test system. A single evaluation of disease level is carried out 3 to 14 days after inoculation, depending on the pathosystem. Percent disease control relative to the untreated check leaf disks or segments is then calculated. Wheat leaf segments cv. Kanzler are placed on agar in multiwell plates (24-well format) and sprayed with the formulated test compound diluted in water. The leaf disks are inoculated with a spore suspension of the fungus 1 day after application. The inoculated leaf segments are incubated at 19° C. and 75% rh under a light regime of 12 h light/12 h darkness in a climate cabinet and the activity of a compound is assessed as percent disease control compared to untreated when an appropriate level of disease damage appears in untreated check leaf segments (7-9 days after application).

[2] = system: Puccinia recondita f. sp. tritici; assay: Puccinia recondita f. sp. tritici / wheat / leaf disc curative (brown rust); format: in vivo; details: foliar, wheat leaf segments cv. Kanzler, applied 1 day after inoculation, assessed 6-8 days after application, read-out: control of Puccinia recondita f. sp. tritici compared to untreated control
Description: Leaf disks or leaf segments of various plant species are cut from plants grown in a greenhouse. The cut leaf disks or segments are placed in multiwell plates (24-well format) onto water agar. The leaf disks are sprayed with a test solution before (preventative) or after (curative) inoculation. Compounds to be tested are prepared as DMSO solutions (max. 10 mg/ml) which are diluted to the appropriate concentration with 0.025% Tween20 just before spraying. The inoculated leaf disks or segments are incubated under defined conditions (temperature, relative humidity, light, etc.) according to the respective test system. A single evaluation of disease level is carried out 3 to 14 days after inoculation, depending on the pathosystem. Percent disease control relative to the untreated check leaf disks or segments is then calculated. Wheat leaf segments cv. Kanzler are placed on agar in multiwell plates (24-well format). The leaf segments are inoculated with a spore suspension of the fungus. Plates are stored in darkness at 19° C. and 75% rh. The formulated test compound diluted in water is applied 1 day after inoculation. The leaf segments are incubated at 19° C. and 75% rh under a light regime of 12 h light/12 h darkness in a climate cabinet and the activity of a compound is assessed as percent disease control compared to untreated when an appropriate level of disease damage appears in untreated check leaf segments (6-8 days after application).

[3] = system: Phakopsora pachyrhizi; assay: Phakopsora pachyrhizi / soybean / leaf disc preventative (Asian soybean rust); format: in vivo; details: foliar, soybean leaf disks, inoculated one day after application, assessed 12-14 days after application, read-out: control of Phakopsora pachyrhizi compared to untreated control
Description: Leaf disks or leaf segments of various plant species are cut from plants grown in a greenhouse. The cut leaf disks or segments are placed in multiwell plates (24-well format) onto water agar. The leaf disks are sprayed with a test solution before (preventative) or after (curative) inoculation. Compounds to be tested are prepared as DMSO solutions (max. 10 mg/ml) which are diluted to the appropriate concentration with 0.025% Tween20 just before spraying. The inoculated leaf disks or segments are incubated under defined conditions (temperature, relative humidity, light, etc.) according to the respective test system. A single evaluation of disease level is carried out 3 to 14 days after inoculation, depending on the pathosystem. Percent disease control relative to the untreated check leaf disks or segments is then calculated. Soybean leaf disks are placed on water agar in multiwell plates (24-well format) and sprayed with the formulated test compound diluted in water. One day after application leaf discs are inoculated by spraying a spore suspension on the lower leaf surface. After an incubation period in a climate cabinet of 24-36 hours in darkness at 20° C. and 75% rh leaf disc are kept at 20° C. with 12 h light/12 h darkness and 75% rh. The activity of a compound is assessed as percent disease control compared to untreated when an appropriate level of disease damage appears in untreated check leaf disks (12-14 days after application).

[4] = system: Uromyces viciae-fabae; assay: Uromyces viciae-fabae / field bean / leaf disc preventative (faba-bean rust); format: in vivo; details: foliar, 288 h, 100 ppm in the applied formulation, field bean leaf discs, inoculated two hours after application, 12 days after application, read-out: disease control compared to untreated control leaf discs
Description: Leaf disks or leaf segments of various plant species are cut from plants grown in a greenhouse. The cut leaf disks or segments are placed in multiwell plates (24-well format) onto water agar. The leaf disks are sprayed with a test solution before (preventative) or after (curative) inoculation. Compounds to be tested are prepared as DMSO solutions (max. 10 mg/ml) which are diluted to the appropriate concentration with 0.025% Tween20 just before spraying. The inoculated leaf disks or segments are incubated under defined conditions (temperature, relative humidity, light, etc.) according to the respective test system. A single evaluation of disease level is carried out 3 to 14 days after inoculation, depending on the pathosystem. Percent disease control relative to the untreated check leaf disks or segments is then calculated. Field bean leaf discs are placed on water agar in multiwell plates (96-well format) and 10 μl of the formulated test compound diluted in acetone and a spreader pipetted onto the leaf disc. Two hours after application leaf discs are inoculated by spraying a spore suspension on the lower leaf surface. The leaf discs are incubated in a climate cabinet at 22° C. with 18 hour day and 70% relative humidity. The activity of a compound is assessed as percent disease control compared to untreated when an appropriate level of disease damage appears in untreated check leaf disks (12 days after application).

[5] = system: Glomerella lagenarium (Colletotrichum lagenarium); assay: Glomerella lagenarium (Colletotrichum lagenarium) liquid culture / cucumber / preventative (anthracnose); format: cell-based; details: Colletotrichum orbiculare, liquid culture in PDB, 24° C., 3-4 days after application, read-out: control of Glomerella lagenarium compared to untreated control (inhibition of growth, photometric)
Description: Mycelia fragments or conidia suspensions of a fungus prepared either freshly from liquid cultures of the fungus or from cryogenic storage, are directly mixed into nutrient broth. DMSO solutions of the test compound (max. 10 mg/ml) are diluted with 0.025% Tween20 by a factor of 50 and 10 μl of this solution is pipetted into a microtiter plate (96-well format). The nutrient broth containing the fungal spores/mycelia fragments is then added to give an end concentration of the tested compound. The test plates are incubated in the dark at 24° C. and 96% relative humidity. The inhibition of fungal growth is determined photometrically after 2 to 7 days, depending on the pathosystem, and percent antifungal activity relative to the untreated check is calculated. Conidia of the fungus from cryogenic storage are directly mixed into nutrient broth (PDB potato dextrose broth). After placing a (DMSO) solution of test compound into a microtiter plate (96-well format), the nutrient broth containing the fungal spores is added. The test plates are incubated at 24° C. and the inhibition of growth is measured photometrically 3-4 days after application.

Row | SMILES | pest or weed control at 200 ppm [1] | pest or weed control at 200 ppm [2] | pest or weed control at 200 ppm [3] | pest or weed control at 100 ppm [4] | inhibition at 20 ppm [5]
1 | CON(C)C(=O)c1ccc(-c2noc(C(F)(F)F)n2)cc1F [Compound 1.2, 2-fluoro-N-methoxy-N-methyl-4-[5-(trifluoromethyl)-1,2,4-oxadiazol-3-yl]benzamide] | ≥ 80% | ≥ 80% | ≥ 80% | ≥ 80% | 
2 | COC(=O)[C@H](C)N(OC)C(=O)c1ccc(-c2noc(C(F)(F)F)n2)cc1 [Compound 2.3, methyl (2S)-2-[methoxy-[4-[5-(trifluoromethyl)-1,2,4-oxadiazol-3-yl]benzoyl]amino]propanoate] |  | ≥ 80% |  | ≥ 80% | ≥ 80%
3 | COC(=O)C(C)N(OC)C(=O)c1ccc(-c2noc(C(F)(F)F)n2)cc1 (stereo not shown) [Compound 2.9, methyl 2-[methoxy-[4-[5-(trifluoromethyl)-1,2,4-oxadiazol-3-yl]benzoyl]amino]propanoate] |  | ≥ 80% |  | ≥ 80% | ≥ 80%
4 | CON(CC1CC1)C(=O)Cc1ccc(-c2noc(C(F)(F)F)n2)cc1 [Compound 2.22, N-(cyclopropylmethyl)-N-methoxy-2-[4-[5-(trifluoromethyl)-1,2,4-oxadiazol-3-yl]phenyl]acetamide] |  | ≥ 80% | ≥ 80% |  | ≥ 80%
5 | CON(C(=O)c1ccc(-c2noc(C(F)(F)F)n2)cc1F)C(C)COC1CCCCO1 (stereo not shown) [Compound 1.9, 2-fluoro-N-methoxy-N-(1-methyl-2-tetrahydropyran-2-yloxy-ethyl)-4-[5-(trifluoromethyl)-1,2,4-oxadiazol-3-yl]benzamide] |  |  |  | ≥ 80% | ≥ 80%
6 | CON(CC1CC1C1CC1)C(=O)Cc1ccc(-c2noc(C(F)(F)F)n2)cc1 (stereo not shown) [Compound 2.25, N-[(2-cyclopropylcyclopropyl)methyl]-N-methoxy-2-[4-[5-(trifluoromethyl)-1,2,4-oxadiazol-3-yl]phenyl]acetamide] |  |  |  |  | ≥ 80%
7 | CON(C(=O)Cc1ccc(-c2noc(C(F)(F)F)n2)cc1)C1COC1 [Compound 2.19, N-methoxy-N-(oxetan-3-yl)-2-[4-[5-(trifluoromethyl)-1,2,4-oxadiazol-3-yl]phenyl]acetamide] | ≥ 80% | ≥ 80% |  |  | ≥ 80%
8 | CON(C(=O)Cc1ccc(-c2noc(C(F)(F)F)n2)cc1)C(C)c1ccccc1 (stereo not shown) [Compound 2.20, N-methoxy-N-(1-phenylethyl)-2-[4-[5-(trifluoromethyl)-1,2,4-oxadiazol-3-yl]phenyl]acetamide] |  |  |  |  | ≥ 80%
9 | CON(C)C(=O)Cc1ccc(-c2noc(C(F)(F)F)n2)c(F)c1 [Compound 1.18, 2-[3-fluoro-4-[5-(trifluoromethyl)-1,2,4-oxadiazol-3-yl]phenyl]-N-methoxy-N-methyl-acetamide] | ≥ 80% | ≥ 80% | ≥ 80% |  | ≥ 80%
10 | COC(=O)C1(N(O)C(=O)c2ccc(-c3noc(C(F)(F)F)n3)cc2)CCN(OC)CC1 [Compound 2.1, methyl 4-[hydroxy-[4-[5-(trifluoromethyl)-1,2,4-oxadiazol-3-yl]benzoyl]amino]-1-methoxy-piperidine-4-carboxylate] | ≥ 80% |  | ≥ 80% | ≥ 80% | ≥ 80%
11 | CON(C(=O)Cc1ccc(-c2noc(C(F)(F)F)n2)cc1)C(C)C1CC1 (stereo not shown) [Compound 2.21, N-(1-cyclopropylethyl)-N-methoxy-2-[4-[5-(trifluoromethyl)-1,2,4-oxadiazol-3-yl]phenyl]acetamide] |  |  |  |  | ≥ 80%
12 | CON(Cc1c(Cl)cc(Cl)cc1Cl)C(=O)c1ccc(-c2noc(C(F)(F)F)n2)cc1F [Compound 1.3, 2-fluoro-N-methoxy-N-[(2,4,6-trichlorophenyl)methyl]-4-[5-(trifluoromethyl)-1,2,4-oxadiazol-3-yl]benzamide] |  |  |  | ≥ 80% | 
13 | O=C(Cc1ccc(-c2noc(C(F)(F)F)n2)cc1)N(O)CC1CC1C1CC1 (stereo not shown) [Compound 2.26, N-[(2-cyclopropylcyclopropyl)methyl]-N-hydroxy-2-[4-[5-(trifluoromethyl)-1,2,4-oxadiazol-3-yl]phenyl]acetamide] | ≥ 80% | ≥ 80% |  |  | ≥ 80%
14 | CON(C(=O)Cc1ccc(-c2noc(C(F)(F)F)n2)c(F)c1)C(C)C1CC1 (stereo not shown) [Compound 1.25, N-(1-cyclopropylethyl)-2-[3-fluoro-4-[5-(trifluoromethyl)-1,2,4-oxadiazol-3-yl]phenyl]-N-methoxy-acetamide] |  | ≥ 80% |  |  | ≥ 80%
15 | CON(C(=O)c1ccc(-c2noc(C(F)(F)F)n2)cc1F)C(C)CO (stereo not shown) [Compound 1.12, 2-fluoro-N-(2-hydroxy-1-methyl-ethyl)-N-methoxy-4-[5-(trifluoromethyl)-1,2,4-oxadiazol-3-yl]benzamide] |  | ≥ 80% |  | ≥ 80% | ≥ 80%
16 | CON(C(=O)Cc1ccc(-c2noc(C(F)(F)F)n2)c(F)c1)C(C)c1ccccc1 (stereo not shown) [Compound 1.24, 2-[3-fluoro-4-[5-(trifluoromethyl)-1,2,4-oxadiazol-3-yl]phenyl]-N-methoxy-N-(1-phenylethyl)acetamide] | ≥ 80% |  |  |  | ≥ 80%

Source: patent publication US11154060B2, “Microbiocidal oxadiazole derivatives” (SYNGENTA PARTICIPATIONS AG, priority 2016, dated 2021)
